From the NIST ThermoML archive (doi:10.1021/je0342668)

Assay: molar heat capacity at constant pressure; xn = mol fraction of the nth substance listed
Settings: Liquid, x2 = 0.568

CCCO [propan-1-ol] + O
Settings | molar heat capacity at constant pressure [J/K/mol]
262.42 K | 106.61
264.63 K | 107.35
266.82 K | 108.31
269.02 K | 109.17
271.19 K | 109.88
273.35 K | 110.58
275.5 K | 111.1
277.64 K | 111.89
279.76 K | 112.63
281.87 K | 113.37
283.94 K | 114.17
286 K | 114.78
288.06 K | 115.38
290.08 K | 116.09
292.07 K | 116.6
294.06 K | 117.18
296.02 K | 117.95
298.02 K | 118.53
300.05 K | 119.17
302.07 K | 119.94
304.12 K | 120.61
306.15 K | 121.22
308.18 K | 121.92
310.21 K | 122.56
312.24 K | 123
314.26 K | 123.59
316.27 K | 124.29
318.28 K | 124.81
